Measured values reported in ChEMBL document CHEMBL5346948, “Expanding Chemical Probe Space: Quality Criteria for Covalent and Degrader Probes” (J Med Chem, 2023).
pIC50: −log10 of the molar value. Blank lines part the entries; values can stand above or below the compound they belong to.

Legend:
[1] = target: T1, Estrogen receptor (Homo sapiens) (UniProt P03372); experiment: Induction of ERalpha degradation in human MCF7 cells assessed as maximal degradation relative to control; format: cell-based
T1 sequence (whole entry): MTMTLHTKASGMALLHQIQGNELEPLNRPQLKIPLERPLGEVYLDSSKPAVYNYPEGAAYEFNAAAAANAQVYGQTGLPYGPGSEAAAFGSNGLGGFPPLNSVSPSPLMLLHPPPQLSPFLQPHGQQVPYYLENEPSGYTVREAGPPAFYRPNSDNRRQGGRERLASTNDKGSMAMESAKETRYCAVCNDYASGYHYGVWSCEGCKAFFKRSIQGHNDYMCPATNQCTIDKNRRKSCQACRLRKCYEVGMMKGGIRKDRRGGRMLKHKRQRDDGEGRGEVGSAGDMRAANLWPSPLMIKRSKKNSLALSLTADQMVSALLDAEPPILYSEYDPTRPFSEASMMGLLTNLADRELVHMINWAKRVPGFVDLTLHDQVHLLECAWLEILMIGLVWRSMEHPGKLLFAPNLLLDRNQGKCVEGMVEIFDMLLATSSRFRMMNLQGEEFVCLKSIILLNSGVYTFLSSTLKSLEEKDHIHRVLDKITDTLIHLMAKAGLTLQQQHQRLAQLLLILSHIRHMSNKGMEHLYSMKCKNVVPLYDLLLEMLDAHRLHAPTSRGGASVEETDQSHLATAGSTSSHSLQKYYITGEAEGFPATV

[2] = test system: GTPase KRas (Homo sapiens), P01116 [G12C]; experiment: Binding affinity to Hexahistidine-tagged recombinant human KRAS G12C mutant (1 to 169 residues) expressed in Escherichia coli assessed as kinact/Ki ratio
[3] = target: T2, Zinc finger protein Helios (Homo sapiens, UniProt Q9UKS7); experiment: Induction of IKZF2 degradation in human GripTite 293 MSR cells; format: cell-based
[4] = target: T2, Zinc finger protein Helios; experiment: Induction of IKZF2 degradation in human GripTite 293 MSR cells assessed as maximal degradation relative to control; format: cell-based
[5] = test system: GTPase KRas (Homo sapiens), P01116 [G12C]; experiment: Binding affinity to KRAS G12 mutant (unknown origin) assessed as kinact/Ki ratio
[6] = target: Cereblon/Bromodomain-containing protein 9 (Homo sapiens); experiment: PROTAC activity at CRBN/BRD9 in human HeLa cells assessed as protein degradation by Western blot analysis
[7] = test system: Cereblon/Bromodomain-containing protein 9 (Homo sapiens); experiment: PROTAC activity at CRBN/BRD9 in human HeLa cells assessed as induction of protein degradation by measuring maximal degradation relative to control
[8] = target: Tyrosine-protein kinase JAK1 (Homo sapiens, UniProt P23458); experiment: Inhibition of JAK1 (unknown origin)
[9] = target: T3, Protein cereblon/RAC-alpha serine/threonine-protein kinase (Homo sapiens, UniProt P31749+Q96SW2); experiment: Protac activity at CRBN/Akt1 in human JeKo-1 cells assessed as Akt1 degradation by immunoblot analysis; format: cell-based
[10] = target: T3, Protein cereblon/RAC-alpha serine/threonine-protein kinase; experiment: Protac activity at CRBN/Akt1 in human JeKo-1 cells assessed as induction of Akt1 degradation by measuring maximal protein degradation relative to control; format: cell-based
[11] = target: T4, B-cell lymphoma 6 protein (Homo sapiens, UniProt P41182); experiment: Induction of BCL6 degradation in human SU-DHL-4 cells; format: cell-based
[12] = target: T4, B-cell lymphoma 6 protein; experiment: Induction of BCL6 degradation in human SU-DHL-4 cells assessed as maximal degradation relative to control; format: cell-based
[13] = target: T5, von Hippel-Lindau disease tumor suppressor/Bcl-2-like protein 1 (Homo sapiens, UniProt Q07817+P40337); experiment: Protac activity at VHL/BCL-XL in human MOLT-4 cells assessed as induction of BCL-XL degradation incubated for 16 hrs by immunoblot analysis; format: cell-based
[14] = target: T5, von Hippel-Lindau disease tumor suppressor/Bcl-2-like protein 1; experiment: Protac activity at VHL/BCL-XL in human MOLT-4 cells assessed as induction of protein degradation by measuring maximal degradation relative to control; format: cell-based
[15] = target: von Hippel-Lindau disease tumor suppressor/SWI/SNF-related matrix-associated actin-dependent regulator of chromatin subfamily A member 2 (Homo sapiens) (UniProt P51531+P40337); experiment: PROTAC activity at SMARCA2/VHL in human MV4-11 cells assessed as induction of protein degradation by measuring maximal protein degradation relative to control; format: cell-based

Emax [1]: 80%
Compound: O=C1CC[C@H](N2Cc3cc(N4CCN(CC5CCN(c6ccc([C@@H]7c8ccc(O)cc8CC[C@@H]7c7ccccc7)cc6)CC5)CC4)ccc3C2=O)C(=O)N1

Ratio [2]: 1100 s⁻¹ M⁻¹
Compound: C=CC(=O)N1CCN(c2ncnc3c(F)c(-c4c(O)cccc4F)c(Cl)cc23)CC1

DC50 [3]: 11 nM | Emax [4]: 69%
Compound: O=C1CCC(N2Cc3cc(C4CCN(Cc5ccccc5)CC4)ccc3C2=O)C(=O)N1 (centres undefined)

Ratio [2]: 250 s⁻¹ M⁻¹
Compound: C=CC(=O)N1CC(N2CCN(C(=O)CNc3cc(C4(C)CC4)c(Cl)cc3O)CC2)C1

Ratio [5]: 27000 s⁻¹ M⁻¹
Compound: C=CC(=O)N1CCN(c2nc(OC[C@@H]3CCCN3C)nc3c(F)c(-c4nc(N)cc(C)c4C(F)(F)F)c(Cl)cc23)[C@@H](C)C1

Ratio [2]: 0.33 s⁻¹ M⁻¹
Compound: C=CS(=O)(=O)NC1CCN(C(=O)CNc2cc(I)c(Cl)cc2O)CC1

DC50 [6]: 3 nM | Emax [7]: 96%
Compound: COc1cc(-c2cn(C)c(=O)c(C)c2C)cc(OC)c1CN1CC[C@H](N2CCN(c3ccc(N[C@H]4CCC(=O)NC4=O)cc3F)CC2)C(F)(F)C1 [SENDEGOBRESIB]

DC50 [6]: < 1 nM | Emax [7]: 97%
Compound: COc1cc(-c2cn(C)c(=O)c3cnc(N4CCC4)cc23)cc(OC)c1CN1CCC(CN2CCC3(CC2)CN(c2ccc4c(c2)C(=O)N([C@H]2CCC(=O)NC2=O)C4)C3)CC1

pIC50 [8]: 7.49
Compound: CS(=O)(=O)N1CC[C@H](C#CC(=O)N2CCC[C@@H](c3ccc(Cl)c(Cl)c3)C2)C1

DC50 [9]: 23 nM | Emax [10]: > 80%
Compound: Cc1ncsc1-c1ccc([C@H](C)NC(=O)[C@@H]2C[C@@H](O)CN2C(=O)[C@@H](NC(=O)CCCCCCCCCCNC(=O)CCc2cccc(-c3ccc4nc(-c5cccnc5N)n(-c5ccc(C6(N)CCC6)cc5)c4n3)c2)C(C)(C)C)cc1

DC50 [11]: 20 nM | Emax [12]: > 80%
Compound: CNC(=O)COc1cc2cc(Nc3nc(N4C[C@H](C)C[C@H](C)C4)ncc3Cl)ccc2n(C)c1=O

DC50 [13]: 63 nM | Emax [14]: 91%
Compound: Cc1ncsc1-c1ccc([C@H](C)NC(=O)[C@@H]2C[C@@H](O)CN2C(=O)[C@@H](NC(=O)CCCCCC(=O)N2CCN(CC[C@H](CSc3ccccc3)Nc3ccc(S(=O)(=O)NC(=O)c4ccc(N5CCN(CC6=C(c7ccc(Cl)cc7)CCC(C)(C)C6)CC5)cc4)cc3S(=O)(=O)C(F)(F)F)CC2)C(C)(C)C)cc1 [DT-2216]

Emax [15]: 81%
Compound: Cc1ncsc1-c1ccc([C@H](CC[C@H](C)CCN2CCC(c3ccc4c(c3)n(C3CCCC3)c3nc(=O)c5c(Br)cccc5n43)CC2)NC(=O)[C@@H]2C[C@@H](O)CN2C(=O)[C@@H](NC(=O)C2(F)CC2)C(C)(C)C)cc1
